These results are taken from patent publication US20240293537A1, “A[…]-GRAFTED LAURYL GAMMA-POL[…] USE THEREOF” (JIANGSU ACADEMY OF AGRICULTURAL SCIENCES, priority 2021, published 2024).

The test system of one data set is Female Balb/c mice. The conditions noted are these: as adjuvant with OVA, 200 μL/mouse, serum 28 days after inoculation.
Another data set concerns RAW 264.7 cells. The method, then:
After incubation for 24 h, the cells were pipetted, washed three times with PBS, centrifuged and finally resuspended in ice PBS before assay with flow cytometer (BD FACSCalibur flow cytometer).

Method for Female Balb/c mice: In addition, 500 μg/mL of an OVA solution (abbreviated as OVA) was prepared by taking a PBS buffer with a pH of 7.4 as a solvent; 100 μg/mL of an FIP solution (abbreviated as FIP) was prepared by taking a PBS buffer with a pH of 7.4 as a solvent.
After inoculation, the skin condition of the injection site was observed over one week. Blood was collected from the orbit 28 days after inoculation, and sera were separated and the antibody titer was measured.
The antibody titer was measured by adopting the following method: 10 μg/mL of an OVA protein solution was prepared by taking 0.05 mol/L of a Na2CO3—NaHCO3 buffer with a pH of 9.6 as a solvent. […]

Turning to `CC(C)Cn1cnc2c(N)nc3ccccc3c21` [Vaccine R837, imiquimod], the “IgG titer (OD450 nm)” value in the data set with Female Balb/c mice came to 3.07. The “solubility in acidic aqueous solution” value (acidic aqueous solution with a pH≤6) is “can be dissolved”. For the setting “hot DMSO and DMF solutions”, the “solubility in solvent phase” value is listed as “slightly soluble”.
“fluorescein-labeled amphiphilic imiquimod-grafted lauryl γ-polyglutamate [FIP]”: the “IgG titer (OD450 nm)” value with Female Balb/c mice was found to be 2.1. The “fluorescence of cells (uptake)” value in the data set on RAW 264.7 cells (RAW 264.7, 24 h, FIP 50 μg/mL) is reported as “a distinct fluorescence peak could still be seen”. Moreover, the “fluorescence intensity of the cells with increase of FIP concentration” value in the data set with RAW 264.7 cells (RAW 264.7, different FIP concentrations) is listed as “gradually increased”.
